From PubChem BioAssay AID624129 (Sanford-Burnham Center for Chemical Genomics, 2012)
pIC50: −log10 of the molar value. Calls of active or inactive are those of the source. How the calls were made is not given here.

Tests used:
Test in all cases: potency against CXCR6 with APJ panel – cell-based, beta-arrestin, DiscoveRx, uHTS hits, dose response (AID 624129)
[1] = biological target: Apelin receptor (Homo sapiens) (UniProt P35414); conditions: CXCR6 beta-arrestin (DiscoveRx) antagonist cell assay, APJ
[2] = biological target: Beta-galactosidase (Escherichia coli) (UniProt Q8VNN2); conditions: CXCR6 beta-arrestin (DiscoveRx) antagonist cell assay, b-galactosidase
Beta-galactosidase (Escherichia coli), sequence (Q8VNN2 whole entry, looked up): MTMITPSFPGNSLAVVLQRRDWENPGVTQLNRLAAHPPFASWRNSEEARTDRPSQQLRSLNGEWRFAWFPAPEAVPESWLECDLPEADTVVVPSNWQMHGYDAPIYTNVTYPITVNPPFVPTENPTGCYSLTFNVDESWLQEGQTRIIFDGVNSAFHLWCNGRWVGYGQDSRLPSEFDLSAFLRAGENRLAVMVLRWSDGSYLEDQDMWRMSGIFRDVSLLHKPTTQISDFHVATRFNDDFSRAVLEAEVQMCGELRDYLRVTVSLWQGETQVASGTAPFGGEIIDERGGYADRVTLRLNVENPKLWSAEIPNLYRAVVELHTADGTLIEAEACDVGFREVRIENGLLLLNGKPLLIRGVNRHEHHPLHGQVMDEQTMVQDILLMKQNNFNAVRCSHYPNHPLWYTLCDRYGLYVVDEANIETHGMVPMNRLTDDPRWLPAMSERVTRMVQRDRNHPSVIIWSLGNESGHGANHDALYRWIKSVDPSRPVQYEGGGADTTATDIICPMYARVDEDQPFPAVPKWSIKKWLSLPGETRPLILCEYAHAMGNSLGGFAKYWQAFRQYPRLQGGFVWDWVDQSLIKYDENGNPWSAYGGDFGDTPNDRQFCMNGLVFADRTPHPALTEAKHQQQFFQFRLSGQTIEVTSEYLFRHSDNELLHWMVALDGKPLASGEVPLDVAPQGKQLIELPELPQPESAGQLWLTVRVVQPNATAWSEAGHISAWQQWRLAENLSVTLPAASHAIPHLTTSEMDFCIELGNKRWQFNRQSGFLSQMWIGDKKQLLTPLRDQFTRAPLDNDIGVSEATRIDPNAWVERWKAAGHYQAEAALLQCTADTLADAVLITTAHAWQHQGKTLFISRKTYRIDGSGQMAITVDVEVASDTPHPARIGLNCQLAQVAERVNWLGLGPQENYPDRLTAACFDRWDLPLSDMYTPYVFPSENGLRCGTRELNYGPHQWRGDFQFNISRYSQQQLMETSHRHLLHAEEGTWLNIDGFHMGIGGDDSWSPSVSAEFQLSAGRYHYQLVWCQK

[3] = biological target: C-C chemokine receptor type 6 (Homo sapiens) (UniProt P51684); conditions: CXCR6 beta-arrestin (DiscoveRx) antagonist cell assay
[4] = biological target: C-X-C chemokine receptor type 6 (Homo sapiens) (UniProt O00574); conditions: CXCR6 beta-arrestin (DiscoveRx) antagonist cell assay
C-X-C chemokine receptor type 6 (Homo sapiens), sequence (O00574 whole entry, looked up): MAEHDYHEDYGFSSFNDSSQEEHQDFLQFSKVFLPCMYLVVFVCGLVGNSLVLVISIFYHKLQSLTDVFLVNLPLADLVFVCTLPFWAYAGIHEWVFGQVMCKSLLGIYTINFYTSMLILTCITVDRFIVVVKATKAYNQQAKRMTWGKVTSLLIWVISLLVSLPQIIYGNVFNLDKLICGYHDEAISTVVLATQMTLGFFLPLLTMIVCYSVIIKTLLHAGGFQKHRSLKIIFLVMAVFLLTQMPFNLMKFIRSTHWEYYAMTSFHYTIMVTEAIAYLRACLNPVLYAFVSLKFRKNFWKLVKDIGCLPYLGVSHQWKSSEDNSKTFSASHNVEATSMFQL

[5] = dose range 1, mean IC50 across replicates
[6] = CCR6, dose range 1, mean IC50 across replicates
[7] = CXCR6, dose range 1, mean IC50 across replicates
[8] = CXCR6, run 1, dose range 2, at 80 µM (top of the series)

| pIC50 ([1]; dose range 1) | pIC50 [1, 5] | pIC50 ([1]; run 2, dose range 1) | pIC50 ([1]; run 3, dose range 1) | IC50 ([2]; dose range 1) | pIC50 [2, 5] | pIC50 ([3]; CCR6, dose range 1) | pIC50 [3, 6] | pIC50 ([3]; CCR6, run 2, dose range 1) | pIC50 ([4]; CXCR6, dose range 1) | pIC50 [4, 7] | pIC50 ([4]; CXCR6, run 1, dose range 2) | pIC50 ([4]; CXCR6, run 2, dose range 1) | pIC50 ([4]; CXCR6, run 2, dose range 2) | IC50 ([4]; CXCR6, dose range 1) | inhibition [4, 8] [%] | pIC50 ([2]; dose range 1) | IC50 ([1]; dose range 1) | inhibition ([4]; CXCR6, run 1, dose range 2, at 40 µM (top of the series)) [%] | SMILES |
| --- | --- | --- | --- | --- | --- | --- | --- | --- | --- | --- | --- | --- | --- | --- | --- | --- | --- | --- | --- |
| 5.03 | 5.06 | 5.05 | 5.10 | > 80 µM (inactive) | < 4.10 | 5.16 | 5.15 | 5.13 | 5.02 | 5.04 | 5.12 | 4.99 | 5.05 | – | – | – | – | – | CCS(=O)(=O)c1ncc(Cl)c(C(=O)Nc2ccc(S(=O)(=O)N3CCCC(C)C3)cc2)n1 (stereo unspecified) |
| 4.12 | 4.31 | 4.44 | 4.43 | > 80 µM (inactive) | < 4.10 | 4.41 | 4.45 | 4.50 | – | 4.22 | – | < 4.10 | – | inactive | 82.2 | – | – | – | C=CCn1nc([N+](=O)[O-])nc1Sc1cccc2cccnc12 |
| 5.37 | 5.24 | 5.10 | 5.28 | > 80 µM (inactive) | < 4.10 | 5.09 | 5.17 | 5.26 | 5.19 | 5.27 | 5.23 | 5.31 | 5.40 | – | – | – | – | – | Cc1ccc(OCCN2C(=O)c3ccccc3C2=O)c([N+](=O)[O-])c1 |
| 5.55 | 5.12 | 4.81 | 5.35 | > 80 µM (inactive) | < 4.10 | 5.62 | 5.49 | 5.40 | 5.31 | 5.32 | 5.57 | 5.18 | < 4.10 | – | – | – | – | – | C/C(=N\NC(=O)c1cc(-c2cccs2)nc2ccccc12)c1ccccn1 |
| 4.70 | 4.63 | 4.61 | 4.60 | > 80 µM (inactive) | < 4.10 | 4.93 | 4.90 | 4.87 | – | 4.89 | – | 5.04 | – | inactive | 123 | – | – | – | O=[N+]([O-])c1c(Nc2ccccc2O)cc(Cl)c2nonc12 |
| – | < 4.10 | < 4.10 | < 4.10 | > 80 µM (inactive) | < 4.10 | – | < 4.10 | < 4.10 | – | < 4.10 | – | < 4.10 | – | > 80 µM (inactive) | -8.52 | – | – | – | CCOC(=O)c1c(SCCN2CCCC2)n(-c2ccccc2)c(=S)n(-c2ccccc2)c1=O |
| 4.67 | 4.71 | 4.76 | 4.70 | > 80 µM (inactive) | < 4.10 | 4.94 | 4.94 | 4.94 | – | < 4.10 | – | < 4.10 | – | > 80 µM (inactive) | 118 | – | – | – | O=[N+]([O-])c1ccc(Sc2cccc[n+]2[O-])c2nonc12 |
| 4.34 | 4.34 | < 4.10 | < 4.10 | > 80 µM (inactive) | < 4.10 | – | 4.39 | 4.39 | – | 4.70 | 5.27 | < 4.10 | 4.85 | inactive | – | – | – | – | CCOc1cc(Br)c(Br)c(C=Nc2ccc(NC(C)=O)cc2)c1O |
| 5.47 | 4.85 | 5.31 | 4.47 | > 80 µM (inactive) | < 4.10 | 5.49 | 5.46 | 5.43 | 5.43 | 5.43 | 5.48 | 5.34 | 5.46 | – | – | – | – | – | C/C(=N\NC(=O)Cc1ccc(Cl)cc1)c1ccccn1 |
| 4.68 | 4.67 | 4.64 | 4.68 | > 80 µM (inactive) | < 4.10 | 4.75 | 4.71 | 4.68 | – | 4.77 | – | 4.74 | – | inactive | 126 | – | – | – | O=C(CSc1nc(-c2ccco2)cc(C(F)(F)F)n1)NCCCn1ccnc1 |
| 4.52 | 4.49 | 4.47 | 4.47 | – | 4.82 | 4.68 | 4.73 | 4.79 | – | 4.55 | – | 4.60 | – | inactive | 125 | 4.82 | – | – | N#CC(C#N)=C1C=CC=CN1/C(=C\c1ccco1)C(=O)c1ccc(Cl)cc1 |
| 4.50 | 4.45 | 4.67 | 4.27 | > 80 µM (inactive) | < 4.10 | 5.48 | 5.44 | 5.41 | 5.38 | 5.12 | 5.35 | 4.75 | 5.38 | – | – | – | – | – | CCn1c(=O)c([N+](=O)[O-])c(Cl)c2ccccc21 |
| 4.57 | 4.45 | 4.28 | 4.57 | > 80 µM (inactive) | < 4.10 | 4.63 | 4.70 | 4.79 | – | 4.37 | – | 4.36 | – | inactive | 158 | – | – | – | CCCCCCN1C=C/C(=C\C=C(C#N)C#N)c2ccccc21 |
| 4.91 | 4.91 | < 4.10 | < 4.10 | > 80 µM (inactive) | < 4.10 | 5.15 | 5.25 | 5.37 | 5.38 | 5.45 | 5.81 | 5.17 | 5.72 | – | – | – | – | – | CCOC(=O)c1c(C)oc2c1c(C=NCc1ccccn1)c(O)c1ccccc12 |
| – | < 4.10 | < 4.10 | < 4.10 | > 80 µM (inactive) | < 4.10 | – | < 4.10 | < 4.10 | – | < 4.10 | – | < 4.10 | – | > 80 µM (inactive) | 11.1 | – | – | – | COC(=O)[C@@H]1[C@@H](C#N)C2(c3ccccc3-c3ccccc32)N(c2ccc(Cl)cc2)N1C#N |
| – | 4.69 | 5.24 | 4.27 | > 80 µM (inactive) | < 4.10 | 5.48 | 5.57 | 5.69 | 5.70 | 5.71 | 5.75 | 5.69 | 5.71 | – | – | – | inactive | – | O=C1C(Cc2ccccc2)Nc2ncnc(N3CCN(c4ccccc4)CC3)c2N1Cc1ccc(Cl)cc1 (stereo unspecified) |
| – | < 4.10 | < 4.10 | < 4.10 | > 80 µM (inactive) | < 4.10 | – | < 4.10 | < 4.10 | – | < 4.10 | – | < 4.10 | – | > 80 µM (inactive) | -19 | – | – | – | CCCC1CCC(=NNC(=S)NCCc2ccccc2)CC1 (stereo unspecified) |
| 4.71 | 4.43 | 4.23 | 4.49 | > 80 µM (inactive) | < 4.10 | 4.78 | 4.66 | 4.56 | – | 4.58 | – | 4.61 | – | inactive | 115 | – | – | – | Cc1[nH][nH]c(=O)c1C(c1c(C)[nH][nH]c1=O)c1cn(Cc2ccc(Cl)c(Cl)c2)c2ccccc12 |
| 5.52 | 5.43 | 5.37 | 5.41 | > 80 µM (inactive) | < 4.10 | 5.48 | 5.38 | 5.29 | 5.30 | 5.40 | 5.50 | 5.33 | 5.50 | – | – | – | – | – | O=[N+]([O-])c1ccc(Sc2cccc3cccnc23)c([N+](=O)[O-])c1 |
| 4.59 | 4.59 | < 4.10 | < 4.10 | > 80 µM (inactive) | < 4.10 | 4.56 | 4.40 | 4.28 | – | 4.68 | 5.39 | < 4.10 | 5.19 | inactive | – | – | – | – | O=[N+]([O-])c1cc2oc3c(c2c(C=NCc2ccccc2)c1O)CCCC3 |
| 5.62 | 5.33 | 5.21 | 5.27 | > 80 µM (inactive) | < 4.10 | 6.14 | 5.88 | 5.72 | 5.78 | 5.80 | – | 5.83 | – | – | – | – | – | 90.8 | CN(O)C(=S)c1ccccc1 |
